# According to US11655477B2, “Methods for thaxtomin production and engineered non-native Streptomyces with increased thaxtomin production” (priority 2017, dated 2023):
# “Also recorded” adds a separate entry of the source. Where two headings read alike, the source gives them in different places.
# Columns and labels:
# PC-3 cells = assay: MTT assay to characterize cytotoxicity, PC-3 cells; type: cell-based, human; conditions: for cytotoxicity toward PC-3 cell line (in words): PC-3, PBS as negative control; for IC30 (30% inhibitory concentration) toward PC-3 cells: prostate cancer PC-3, MTT, 48 to 72 h
# Experimental: (§1) PC-3 and Jurkat cells were cultured in DMEM or RPM11640 medium containing 10% fetal bovine serum and 100 U/mL penicillin and streptomycin, and maintained at 37° C. in a humidified incubator under 5% CO2. The cells (1×10^4 for Jurkat, and 5,000 for PC-3 in 100 μL) were seeded into 96-well plates and incubated overnight. Varying concentrations of purified compounds (0 μM, 12.5 μM, 25 μM, 50 μM and 100 μM) were added to the wells. After incubation at 37° C. for 48 to 72 h, 10 μL of MTT (5 mg/mL) in PBS was added and incubated for 4 h, followed by aspiration of the medium. DMSO (100 μL) was added to each well to dissolve the MTT in the wells, and the plates were agitated for 1 h for recording the absorbance at 570 nm using UV/vis microplate spectrophotometer (BioTek). Three to six replications were performed per treatment of each sample.
# radish seedling = assay: Herbicidal activity assay, radish seedling growth inhibition on agar plates; type: in vivo; conditions: for herbicidal activity / growth inhibition toward radish seedling (in words): DMSO as negative control; for IC50: total seedling length after 6 days, percent inhibition relative to DMSO control, four-parameter logistic fit, read-out: I50 (herbicidal activity, radish seedling assay)
# Experimental: Serial concentrations (0 to 4 μM) of thaxtomins in DMSO were added into 20 mL of 1.5% warm agar solution with gentle agitation. DMSO was included as the negative control. The solution was then poured into the plate for solidification at room temperature for 30 min. Radish seeds (Burpee) were surface disinfested, pregerminated and selected when the radicle was […] and just emerged from the seed coat. Six radish seedlings were equally located on the surface of each plate with the root ends all pointed in the same direction. Agar plates were covered, sealed with Parafilm. The seedlings in the agar plates grew at room temperature under fluorescent lighting (12 h per day for 6 days), and total seedling lengths were then recorded. Three plates were set up for each dosage of each compound. Percent inhibition relative to the mean growth response in DMSO treated control plates was then calculated. Dose-response curves were fit to a four-parameter logistic model as described in Streibig, J C, et al., 1993 (which is hereby incorporated by reference herein), and Iso values were estimated from these curves.
# Jurkat cells = assay: MTT assay to characterize cytotoxicity, Jurkat cells; type: cell-based, human; conditions: for cytotoxicity toward Jurkat cell line (in words): PBS as negative control; for IC30 (30% inhibitory concentration) toward Jurkat cells: human T-cell leukemia Jurkat, MTT, 48 to 72 h
# Experimental: as §1
# cellulose biosynthesis = conditions: background statement; cited from earlier work
SMILES,cytotoxicity toward PC-3 cell line (in words) (PC-3 cells),IC30 (30% inhibitory concentration) toward PC-3 cells (PC-3 cells) [µM],herbicidal activity / growth inhibition toward radish seedling (in words) (radish seedling),IC50 (radish seedling) [µM],cytotoxicity toward Jurkat cell line (in words) (Jurkat cells),IC30 (30% inhibitory concentration) toward Jurkat cells (Jurkat cells) [µM],concentration range of inhibition of cellulose biosynthesis (cellulose biosynthesis),"IC50 (radish seedling; Raphanus sativus, 144 h) [µM]"
"CN1C(=O)[C@](O)(Cc2cccc(O)c2)N(C)C(=O)[C@@H]1Cc1c[nH]c2cccc([N+](=O)[O-])c12 [Compound 1, thaxtomin A, reference compound]",weak cytotoxicity,80.28 ± 10.50,potent growth inhibition activity,0.45 ± 0.05,weak cytotoxicity,70.84 ± 16.68,in the nM range,
"CN1C(=O)C(O)(Cc2ccccc2O)N(C)C(=O)C1Cc1c[nH]c2cccc([N+](=O)[O-])c12 (centres unmarked) [Compound 2, ortho-thaxtomin A]",weak cytotoxicity,42.38 ± 13.62,potent growth inhibition activity,0.81 ± 0.04,weak cytotoxicity,56.46 ± 12.04,,
"CN1C(=O)[C@](O)(Cc2ccccc2)N(C)C(=O)[C@@H]1Cc1c[nH]c2cccc([N+](=O)[O-])c12 [Compound 3, thaxtomin B]",weak cytotoxicity,37.87 ± 13.46,,,weak cytotoxicity,50.92 ± 13.17,,
"CN1C(=O)[C@](O)(Cc2cccc(O)c2)N(C)C(=O)[C@@H]1Cc1c[nH]c2ccc(F)c([N+](=O)[O-])c12 [Compound 9, 5-F-thaxtomin A]",weak cytotoxicity,56.76 ± 17.12,potent herbicidal activity; also recorded: potent growth inhibition activity,,weak cytotoxicity,63.26 ± 9.29,,0.56 ± 0.03
